Measurements as given in PubChem BioAssay AID2060498 (Molecular Pharmacology Branch, DTP, NCI, 2025).

Tested on: 171881-019-R-J1-PDC tumor spheroids, viability
Assay: Anticancer human tumor 171881-019-R-J1-PDC patient-derived invasive breast carcinoma cell line growth inhibition [GQUAD]
Conditions: spheroids with HUVEC and MSC; for IC50: curve of first compound; for viability, T/C: stronger effect = lower value
Summary of the method: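 Tumor cells were grown as complex spheroids with HUVEC endothelial cells and mesenchymal stem cells as stroma. G-quadruplex stabilizers were combined with targeted agents over half-log dilutions from near the clinical Cmax, or from 10 microM.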

[1] = second compound 0.0316 µM, first compound 0.000999 µM
[2] = second compound 0.0316 µM, first compound 0.00316 µM
[3] = second compound 0.0316 µM, first compound 0.00999 µM
[4] = second compound 0.0316 µM, first compound 0.0316 µM
[5] = second compound 0.0316 µM, first compound 0.0999 µM
[6] = second compound 0.0316 µM, first compound 0.316 µM
[7] = second compound 0.1 µM, first compound 0.000999 µM
[8] = second compound 0.1 µM, first compound 0.00316 µM
[9] = second compound 0.1 µM, first compound 0.00999 µM
[10] = second compound 0.1 µM, first compound 0.0316 µM
[11] = second compound 0.1 µM, first compound 0.0999 µM
[12] = second compound 0.1 µM, first compound 0.316 µM
[13] = second compound 0.316 µM, first compound 0.000999 µM
[14] = second compound 0.316 µM, first compound 0.00316 µM
[15] = second compound 0.316 µM, first compound 0.00999 µM
[16] = second compound 0.316 µM, first compound 0.0316 µM
[17] = second compound 0.316 µM, first compound 0.0999 µM
[18] = second compound 0.316 µM, first compound 0.316 µM
[19] = second compound 1 µM, first compound 0.000999 µM
[20] = second compound 1 µM, first compound 0.00316 µM
[21] = second compound 1 µM, first compound 0.00999 µM
[22] = second compound 1 µM, first compound 0.0316 µM
[23] = second compound 1 µM, first compound 0.0999 µM
[24] = second compound 1 µM, first compound 0.316 µM
[25] = second compound 3.16 µM, first compound 0.000999 µM
[26] = second compound 3.16 µM, first compound 0.00316 µM
[27] = second compound 3.16 µM, first compound 0.00999 µM
[28] = second compound 3.16 µM, first compound 0.0316 µM
[29] = second compound 3.16 µM, first compound 0.0999 µM
[30] = second compound 3.16 µM, first compound 0.316 µM
[31] = second compound 10 µM, first compound 0.000999 µM
[32] = second compound 10 µM, first compound 0.00316 µM
[33] = second compound 10 µM, first compound 0.00999 µM
[34] = second compound 10 µM, first compound 0.0316 µM
[35] = second compound 10 µM, first compound 0.0999 µM
[36] = second compound 10 µM, first compound 0.316 µM
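Also: spheroids exposed to compounds for 7 days.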
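For viability, T/C in this document: 100% = DMSO vehicle control viability.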

`CCc1c2c(nc3ccc(O)cc13)-c1cc3c(c(=O)n1C2)COC(=O)[C@]3(O)CC` + CN(C)c1ccc(Nc2c3ccc(NC(=O)CCN4CCCC4)cc3nc3cc(NC(=O)CCN4CCCC4)ccc23)cc1 was tested, and the IC50 (second compound 0.0316 µM) was 8 nM, the IC50 (second compound 0.1 µM) was 7.74 nM and the IC50 (second compound 0.316 µM) was 4.32 nM. For the same compound, the IC50 (second compound 1 µM) was < 0.999 nM, the IC50 (second compound 3.16 µM) was < 0.999 nM and the IC50 (second compound 10 µM) was < 0.999 nM. For the same compound, the viability, T/C [1] was 91.8%, the viability, T/C [2] was 56.5% and the viability, T/C [3] was 49.2%. The viability, T/C [4] was 42.3%, the viability, T/C [5] was 33.4% and the viability, T/C [6] was 24.8%. The viability, T/C [7] was 94.9%, the viability, T/C [8] was 55.6% and the viability, T/C [9] was 50.2%. It also gave a viability, T/C [10] of 43.8%, a viability, T/C [11] of 32.4% and a viability, T/C [12] of 27.4%. It also gave a viability, T/C [13] of 77.1%, a viability, T/C [14] of 51.1% and a viability, T/C [15] of 42.2%. For the same compound, the viability, T/C [16] was 30.9%, the viability, T/C [17] was 30.3% and the viability, T/C [18] was 22%. It also gave a viability, T/C [19] of 16.3%, a viability, T/C [20] of 12.6% and a viability, T/C [21] of 17%. For the same compound, the viability, T/C [22] was 11%, the viability, T/C [23] was 7.94% and the viability, T/C [24] was 6.83%. For the same compound, the viability, T/C [25] was 2.04%, the viability, T/C [26] was 1.12% and the viability, T/C [27] was 2.08%. The viability, T/C [28] was 1.29%, the viability, T/C [29] was 1.67% and the viability, T/C [30] was 1.67%. The viability, T/C [31] was 0.56%, the viability, T/C [32] was 0.37% and the viability, T/C [33] was 0.38%. For the same compound, the viability, T/C [34] was 0.48%, the viability, T/C [35] was 0.49% and the viability, T/C [36] was 0.16%.
For `Cc1cccc(N(C)C(=O)C2C(O)CCN2c2nc(C)cc(C(F)(F)F)c2C#N)c1` (stereo unspecified) + CN(C)c1ccc(Nc2c3ccc(NC(=O)CCN4CCCC4)cc3nc3cc(NC(=O)CCN4CCCC4)ccc23)cc1, the IC50 (second compound 0.0316 µM) was > 10000 nM, the IC50 (second compound 0.1 µM) was > 10000 nM and the IC50 (second compound 0.316 µM) was 7840 nM. The IC50 (second compound 1 µM) was < 31.6 nM, the IC50 (second compound 3.16 µM) was < 31.6 nM and the IC50 (second compound 10 µM) was < 31.6 nM. For the same compound, the viability, T/C [4] was 87.6%, the viability, T/C (second compound 0.0316 µM, first compound 0.1 µM) was 91.2% and the viability, T/C [6] was 103%. For the same compound, the viability, T/C (second compound 0.0316 µM, first compound 1 µM) was 101%, the viability, T/C (second compound 0.0316 µM, first compound 3.16 µM) was 87.6% and the viability, T/C (second compound 0.0316 µM, first compound 10 µM) was 79.2%. For the same compound, the viability, T/C [10] was 99.2%, the viability, T/C (second compound 0.1 µM, first compound 0.1 µM) was 102% and the viability, T/C [12] was 96.4%. It also gave a viability, T/C (second compound 0.1 µM, first compound 1 µM) of 105%, a viability, T/C (second compound 0.1 µM, first compound 3.16 µM) of 85.6% and a viability, T/C (second compound 0.1 µM, first compound 10 µM) of 75.2%. For the same compound, the viability, T/C [16] was 88.3%, the viability, T/C (second compound 0.316 µM, first compound 0.1 µM) was 93.5% and the viability, T/C [18] was 85.2%. For the same compound, the viability, T/C (second compound 0.316 µM, first compound 1 µM) was 75.1%, the viability, T/C (second compound 0.316 µM, first compound 3.16 µM) was 75.7% and the viability, T/C (second compound 0.316 µM, first compound 10 µM) was 43.3%. For the same compound, the viability, T/C [22] was 26.3%, the viability, T/C (second compound 1 µM, first compound 0.1 µM) was 23.1% and the viability, T/C [24] was 31.7%. The viability, T/C (second compound 1 µM, first compound 1 µM) was 23.1%, the viability, T/C (second compound 1 µM, first compound 3.16 µM) was 19.1% and the viability, T/C (second compound 1 µM, first compound 10 µM) was 9.15%. It also gave a viability, T/C [28] of 1.62%, a viability, T/C (second compound 3.16 µM, first compound 0.1 µM) of 1.75% and a viability, T/C [30] of 1.5%. For the same compound, the viability, T/C (second compound 3.16 µM, first compound 1 µM) was 1.54%, the viability, T/C (second compound 3.16 µM, first compound 3.16 µM) was 1.07% and the viability, T/C (second compound 3.16 µM, first compound 10 µM) was 1.26%. The viability, T/C [34] was 0.45%, the viability, T/C (second compound 10 µM, first compound 0.1 µM) was 0.54% and the viability, T/C [36] was 0.26%. The viability, T/C (second compound 10 µM, first compound 1 µM) was 0.48%, the viability, T/C (second compound 10 µM, first compound 3.16 µM) was 0.65% and the viability, T/C (second compound 10 µM, first compound 10 µM) was 0.44%.
In the case of `Cn1ncnc1[C@H]1c2n[nH]c(=O)c3cc(F)cc(c23)N[C@@H]1c1ccc(F)cc1` + CN(C)c1ccc(Nc2c3ccc(NC(=O)CCN4CCCC4)cc3nc3cc(NC(=O)CCN4CCCC4)ccc23)cc1, the IC50 (second compound 0.0316 µM) is reported as > 316 nM, the IC50 (second compound 0.1 µM) is reported as > 316 nM and the IC50 (second compound 0.316 µM) is reported as > 316 nM. For the same compound, the IC50 (second compound 1 µM) was < 0.999 nM, the IC50 (second compound 3.16 µM) was < 0.999 nM and the IC50 (second compound 10 µM) was < 0.999 nM. For the same compound, the viability, T/C [1] was 95.8%, the viability, T/C [2] was 98% and the viability, T/C [3] was 91.5%. It also gave a viability, T/C [4] of 102%, a viability, T/C [5] of 88.9% and a viability, T/C [6] of 96.1%. For the same compound, the viability, T/C [7] was 105%, the viability, T/C [8] was 97.8% and the viability, T/C [9] was 98.8%. The viability, T/C [10] was 100%, the viability, T/C [11] was 72.9% and the viability, T/C [12] was 87.6%. For the same compound, the viability, T/C [13] was 87.7%, the viability, T/C [14] was 84.6% and the viability, T/C [15] was 89%. It also gave a viability, T/C [16] of 68.2%, a viability, T/C [17] of 79.3% and a viability, T/C [18] of 77%. It also gave a viability, T/C [19] of 35.8%, a viability, T/C [20] of 24.4% and a viability, T/C [21] of 34.5%. It also gave a viability, T/C [22] of 16.9%, a viability, T/C [23] of 22% and a viability, T/C [24] of 19.1%. It also gave a viability, T/C [25] of 2.45%, a viability, T/C [26] of 2.11% and a viability, T/C [27] of 1.92%. For the same compound, the viability, T/C [28] was 1.34%, the viability, T/C [29] was 1.64% and the viability, T/C [30] was 2.41%. For the same compound, the viability, T/C [31] was 0.29%, the viability, T/C [32] was 0.56% and the viability, T/C [33] was 0.56%. The viability, T/C [34] was 0.4%, the viability, T/C [35] was 0.71% and the viability, T/C [36] was 1.05%.
